{"source": "paper PMC12521527", "about": "“In vivo self-assembled nano-PROTAC for the dual degradation of AR and HSP90 to overcome castration-resistant prostate cancer resistance” (Signal Transduction and Targeted Therapy, 2025)", "key": {"22Rv1 xenograft tumor": {"tested_on": "22Rv1 xenograft tumor", "assay": "Antitumor efficacy in 22Rv1 xenograft mice", "format": "in vivo, BALB/c nude mice", "conditions": "for tumor volume / median survival: n = 6", "excerpt": "To evaluate the therapeutic potential and superiority of Psa-AR in prostate cancer, we established subcutaneous xenograft tumor models using AR-mutant 22Rv1 cells.[51] All procedures strictly complied with the Guide for the Care and Use of Laboratory Animals and were approved by the Committee for Animal Research of the National Center for Nanoscience and Technology. When the tumor volume reached ~100 mm³, 22Rv1-bearing mice were randomized into three groups (n = 6/group): the PBS control, Psa-AR, and P-AR groups. Treatments were administered via tail vein injection every other day for five cycles. The tumor volume and body weight were monitored every other day for 20 days (Fig. 6a). […] The individual tumor growth curves for each group are presented in Supplementary Fig. 20. No obvious body weight loss was observed during treatment (Fig. 6c). […] To elucidate the mechanistic basis of tumor suppression, we quantitatively assessed AR and HSP90 protein expression in excised tumor tissues through IF. […] This dual-target degradation profile directly correlates with the observed therapeutic efficacy, validating the assembly driven target engagement and degradation strategy. […] To address the critical limitations of conventional PROTACs, particularly the Hook effect-induced nonlinear pharmacokinetics and narrow therapeutic window. We rigorously evaluated the dose-responsive antitumor efficacy of Psa-AR in 22Rv1 xenograft models. Mice bearing subcutaneous tumors received escalating doses (10, 20, or 30 mg/kg) via intravenous administration every 48 h for five consecutive treatment cycles. The tumor volume and body weight were evaluated for 20 days. Tumor volume was suppressed in a dose-dependent manner, with a mean tumor volume of […], a mean tumor volume of 536 mm^3 at 20 mg/kg and a mean tumor volume of 220 mm^3 at 10 mg/kg (Fig. 6h). The individual tumor growth curves for each group are presented in Supplementary Fig. 21. […] IF analysis of tumor sections provided spatially resolved dose-dependent quantification of AR and HSP90 proteolysis. […] Collectively, the dose-dependent tumor suppression and coordinated target proteolysis observed in the 22Rv1 xenograft model mechanistically validated the therapeutic superiority of in situ self-assembled Psa-AR. To systematically evaluate the therapeutic advantages of the dual-protein targeting strategy of Psa-AR through simultaneous degradation of AR and HSP90 in overcoming tumor drug resistance, this study compared the antitumor efficacy of Psa-AR with that of current clinical regimens (including the AR inhibitor enzalutamide, the HSP90 inhibitor pimitespib, and their combination) in 22Rv1 xenograft models (Fig. 7a). The experimental protocol was designed as follows: When the tumor volume reached ~100 mm³, the tumor-bearing mice were\nFig. 6 In vivo antitumor efficacy of Psa-AR. a Schematic illustration of the tumor inoculation and treatment protocol for 22Rv1 xenograft mice. (n = 6 per group) b Observation of the tumor inhibitory effect on 22Rv1 xenograft mice in PBS, P-AR, or Psa-AR (20 mg/kg in 200 μL of PBS) over 20 days of treatment. c Body weight changes in 22Rv1 xenograft mice in different treatment groups over 20 days. d Kaplan‒Meier survival curves of 22Rv1 xenograft mice in different groups over 20 days of treatment. e Immunofluorescence analysis of AR protein levels in 22Rv1 tumor tissues after treatment with PBS, P-AR, or Psa-AR (20 mg/kg in 200 μL of PBS) for 20 days. Scale bar: 20 μm. f Immunofluorescence analysis of the HSP90 protein levels in 22Rv1 tumor tissues after treatment with PBS, P-AR, or Psa-AR (20 mg/kg in 200 μL of PBS) for 20 days. Scale bar: 20 μm. g Terminal deoxynucleotidyl transferase (TdT) dUTP nick-end labeling (TUNEL) staining of tumors after treatment with PBS, P-AR, or Psa-AR (20 mg/kg in 200 μL of PBS) for 20 days. […]"}, "[1]": {"assay": "In vivo biocompatibility in healthy mice", "conditions": "healthy BALB/c mice", "description": "Fig. 7 In vivo antitumor efficacy of Psa-AR. a Schematic illustration of the tumor inoculation and treatment protocol for 22Rv1 xenograft mice. (n = 6 per group) b Observation of the tumor inhibitory effect on 22Rv1 xenograft mice in PBS, enzalutamide, pimitespib, Enza, Pimi, and Psa-AR (30 mg/kg in 200 μL of PBS) over 20 days of treatment. (Enza, Pimi: Combination therapy with enzalutamide (AR antagonist) and Pimitespib (HSP90 inhibitor)). c Kaplan‒Meier survival curves of 22Rv1 xenograft mice in different groups over 20 days of treatment. d Changes in the body weights of 22Rv1 xenograft mice in different groups over 20 days of treatment. e Terminal deoxynucleotidyl transferase (TdT) dUTP nick-end labeling (TUNEL) staining of tumors after treatment with PBS, enzalutamide, pimitespib, ENZ, Pimi or Psa-AR (30 mg/kg in 200 μL of PBS) for 20 days. Scale bar: 50 μm. f Hematoxylin‒eosin (H&E) staining of the main organs after treatment with PBS or Psa-AR (30 mg/kg in 200 μL of PBS) for 24 h. Scale bar: 50 μm. g–j Blood biochemistry data, including ALT, AST, ALP, TP, ALB, GLOB, BUN, and CRE levels, of the mice after treatment with Psa-AR (20 mg/kg in 200 μL of PBS) for 1 day or 14 days (n = 3 per group). p values were determined via one-way ANOVA followed by post hoc Tukey’s test. The data are presented as the means ± SDs\nTo thoroughly evaluate the in vivo biocompatibility of the Psa-AR degradation system, we performed comprehensive toxicological assessments in healthy BALB/c mice. At 24 h post-administration of either PBS or Psa-AR (30 mg/kg, n = 3 per group), we collected major organs (heart, liver, spleen, lungs, and kidneys) along with serum samples for histopathological and biochemical analysis. […] These comprehensive biosafety evaluations confirmed that the Psa-AR system maintains exceptional biocompatibility, with no acute toxicity observed in vital organs or systemic metabolic pathways. The combined histopathological and biochemical evidence strongly supports the clinical translatability of this targeted protein degradation platform."}}, "note": "Numbered stars: 1 amine (or outer) side, 2 acyl side, 3 side chain; on linkers, the order of the positions; unused ones are H or OH. Square brackets hold non-standard residues; d marks the D form. Peptide text beside a SMILES is read from it. * marks the point of attachment. X2 = CC1(C)C(=O)N(c2ccc(C#N)c(C(F)(F)F)c2)C(=S)N1c1ccc(C(=O)*)c(F)c1; X1 = O=C1CCC(N2C(=O)c3cccc(N(CC(=O)[*:2])[*:1])c3C2=O)C(=O)N1; EuK = O=C(O)CC[C@H](NC(=O)N[C@@H](CCCCN*)C(=O)O)C(=O)O; 2Nal = N[C@@H](Cc1ccc2ccccc2c1)C(=O)O", "data": [{"compound": "CC1(C)C(=O)N(c2ccc(C#N)c(C(F)(F)F)c2)C(=S)N1c1ccc(C(=O)NCCCC[C@H](NC(=O)CNc2cccc3c2C(=O)N(C2CCC(=O)NC2=O)C3=O)C(=O)N[C@@H](CS)C(=O)N[C@@H](CCC(N)=O)C(=O)N[C@@H](Cc2ccc(O)cc2)C(=O)N[C@@H](CC(N)=O)C(=O)N[C@@H](CCC(N)=O)C(=O)N[C@@H](Cc2ccc(O)cc2)C(=O)N[C@@H](Cc2ccc(O)cc2)C(=O)N[C@@H](Cc2ccc3ccccc3c2)C(=O)NCCCC[C@H](NC(=O)N[C@@H](CCC(=O)O)C(=O)O)C(=O)O)c(F)c1", "note": "(some centres unmarked) [Psa-AR] (H-[X1]K(X2)CQYNQYY[2Nal]-EuK)", "values": [{"measurement": "extension of median survival compared with P-AR controls", "setting": "22Rv1 xenograft tumor; 20 mg/kg study", "result": 1.8, "unit": "fold"}, {"measurement": "extension of median survival compared with PBS controls", "setting": "22Rv1 xenograft tumor; 20 mg/kg study", "result": 2.2, "unit": "fold"}, {"measurement": "tumor volume", "setting": "22Rv1 xenograft tumor; 20 mg/kg tail vein every other day, five cycles, 20 days, PBS 1003 mm^3", "result": 347, "unit": "mm^3"}, {"measurement": "TUNEL apoptotic index of tumor sections", "setting": "22Rv1 xenograft tumor; 20 mg/kg, 20 days, compared with PBS control and P-AR", "result": "significant increase in the apoptotic index"}, {"measurement": "AR and HSP90 protein expression in excised tumor tissues", "setting": "22Rv1 xenograft tumor; IF, 20 mg/kg, 20 days", "result": "AR and HSP90 reduction"}, {"measurement": "median survival", "setting": "22Rv1 xenograft tumor; K-M analysis, 20 mg/kg study, PBS 22 days", "result": 48, "unit": "days"}, {"measurement": "TUNEL analysis of tumor tissue sections", "setting": "22Rv1 xenograft tumor; comparison study, 30 mg/kg, 20 days", "result": "increased activation of tumor apoptosis"}, {"measurement": "tumor volume", "setting": "22Rv1 xenograft tumor; comparison study, 20 days, Psa-AR 30 mg/kg i.v. every 2 days x5, enzalutamide 25 mg/kg, pimitespib 15 mg/kg, PBS 1017 mm^3", "result": 220, "unit": "mm^3"}, {"measurement": "median survival", "setting": "22Rv1 xenograft tumor; comparison study, PBS 21 days", "result": 46, "unit": "days"}, {"measurement": "body weight during the monitoring cycle", "setting": "22Rv1 xenograft tumor; dose study, 10, 20, or 30 mg/kg, 20 days", "result": "no significant change in the body weight"}, {"measurement": "mean tumor volume at 20 mg/kg", "setting": "22Rv1 xenograft tumor; dose study, intravenous every 48 h, five cycles, 20 days", "result": 536, "unit": "mm^3"}, {"measurement": "routine blood analysis (WBC, NEU, LYM, RBC, PLT, HGB, MPV)", "setting": "[1]", "result": "no obvious changes were detected"}, {"measurement": "serum biochemistry (ALT, AST, ALP, TP, ALB, GLOB, BUN, CRE) versus PBS", "setting": "[1]; 30 mg/kg, 24 h, n = 3", "result": "not significantly different between the groups"}, {"measurement": "H&E histopathology of major organs (heart, liver, spleen, lungs, kidneys)", "setting": "[1]; 30 mg/kg, 24 h post-administration, n = 3", "result": "no observable pathological changes"}]}]}
